# Measured values reported in patent US6395772B1, “Method for blocking endothelial cell-leukocyte attachment by inhibiting expression of adhesion molecules on the vascular endothelium for therapeutic applications” (National Institute of Immunology, priority 1996, dated 2002).
# “Also recorded” adds a separate entry of the source.
# What was measured:
# [1] = system: B cells, T cells; conditions: cited from earlier work
# [2] = system: ICAM-1; test: ICAM-1 expression on vascular endothelium of LPS-challenged mice (immunocytochemical localization); assay type: in vivo, BALB/C mice; conditions: berberine intraperitoneally 24 hours before 500 ug LPS; sacrificed 6 hours after LPS
# Description: FIG. 3: Photomicrograph of liver from mice challenged with endotoxin (LPS 500 ug). […] (Immunocytochemical localization using anti-ICAM-1 antibody on frozen tissue).
# FIG. 4: Photomicrograph of liver from mice treated with berberine (10 ug/kg) followed 24 hours later by endotoxin (LPS 500 ug). […] (Immunocytochemical localization using anti-ICAM-1 antibody frozen tissue).
# BALB/C mice were treated with berberine (1, 5, 10 or 20 ug/kg body weight) intraperitoneally and challenged 24 hours later with 500 ug of endotoxin (lipopolysaccharide: LPS); controls without berberine treatment were also given LPS challenge. Animals were sacrificed 6 hours after the LPS challenge and various organs (liver, kidney, lungs) were removed and immediately frozen in liquid nitrogen. Frozen section of these organs were subjected to immunocytochemical localization for ICAM 1 antibodies.
# [3] = system: attachment of neutrophils to endothelial lining of the glomerular capillaries; test: Neutrophil attachment to endothelial lining in kidney of endotoxin-challenged mice (electron microscopy); assay type: in vivo, BALB/C mice
# Description: FIG. 1: Electron micrograph of kidney from a mouse challenged with endotoxin (LPS: 500 ug)) showing attachment of neutrophils with endothelial cells of glomerular capillary. Degenerative changes in surrounding tissue are shown.
# FIG. 2: Electron micrograph of kidney from a mouse treated with a dose of berberine of 10 mg/kg followed 24 hours later by endotoxin (LPS 500 ug).
# BALB/C mice were treated with berberine (1, 5, 10 or 20 ug/kg body weight) intraperitoneally and challenged 24 hours later with lethal dose of endotoxin. Kidneys were removed after 3, 6 and 12 hours after endotoxin challenge and the tissue samples was fixed and processed for electron microscopy.
# [4] = system: ICAM-1 on endothelial cell line (send. 1); test: TNF-α induced ICAM-1 expression on endothelial cell line (send. 1), flowcytometric analysis; assay type: cell-based
# Description: FIG. 5: Effect of berberine pretreatment on expression of TNF-α induced ICAM-1 expression on endothelial cell line (send. 1), in vitro. […] (Flowcytometric analysis using anti-ICAM 1 antibody—FITC conjugate). The black line represents background level of ICAM expression, the red line represents induced level of ICAM following TNF stimulation and the green line represents TNF-α induced ICAM-1 expression after treatment for different duration.
# FIG. 6: Effect of berberine pretreatment (dose response) on expression of TNF-α induced ICAM-1 expression on endothelial cell line (send. 1), in vitro. […] (Flowcytometric analysis using anti-ICAM 1 antibody—FITC conjugate). The black line represents background level of ICAM-1 expression, the red line represents induced level of ICAM following TNF stimulation and the green line represents the TNF-α induced ICAM induced ICAM expression after treatment with different doses of berberine.
# Shifting of this curve to the left indicates the lower amount of expression of ICAM-1.
# Effect of berberine for various duration ranging from 1, 6, 12 and 24 hours on the expression of ICAM-1 on the endothelial cell line (send. 1) in response to a combination of recombinant TNF-α and IFN-γ was analyzed using flowcytometer after staining with FITC labeled anti-CD 54 (ICAM-1) antibody.
# [5] = system: TNF sensitive mouse fibroblast L-929 cell line; test: TNF-α mediated cytotoxicity on TNF-sensitive L-929 fibroblast cell line (MTT assay); assay type: cell-based
# Description: FIG. 7: Effect of berberine on TNF-α mediated cytotoxicity on TNF sensitive mouse fibroblast L-929 cell line.
# Effect of Berberine on TNF-α mediated cytotoxicity was evaluated using TNF-sensitive L-929 fibroblast cell line. L-929 cells were plated at a concentration of 5×10^4 cells/well in a 96-well flat bottom plate in a volume of 100 μl. The cells were incubated at 37° C. for 16-18 hrs. Different concentrations of TNF-α, with and without different doses of berberine, were added to the cultures. The cells were then incubated for additional 15 hrs and cytotoxity was measured by MTT assay.
smiles,measurement,setting,value
COc1ccc2cc3[n+](cc2c1OC)CCc1cc2c(cc1-3)OCO2 [berberine],antibody production by B cells,[1],inhibits antibody production by B cells
same,propagation of T cells,[1],no effect on propagation of T cells
same,"expression of ICAM-1 on vascular endothelium (liver, kidney, lungs)",[2],lack of expression of ICAM-1 on vascular endothelium; also recorded: inhibited expression of ICAM 1 on the endothelial lining of all organs
same,glomerular morphology / surrounding tissue,"[3]; berberine dose of 10-20 mg/kg, endotoxin challenge 24 hours later",surrounding tissue appears normal; also recorded: glomerular morphology was normal
same,attachment of neutrophils to endothelial lining of glomerular capillaries,"[3]; berberine intraperitoneally 24 hours before lethal endotoxin (LPS 500 ug), kidneys 3, 6 and 12 hours after challenge",appear free without attachment to endothelial lining; also recorded: remarkably inhibited the attachment of neutrophils to endothelial lining of the glomerular capillaries
same,maximum inhibition of ICAM-1 expression,[4]; 24 hours of treatment at 100 μg/ml,24 hour pretreatment shows the maximum inhibition of ICAM-1 expression and Treatment with 100 ug/ml berberine shows the maximum inhibition of ICAM-1 expression and maximum inhibition was seen at 24 hours of treatment at 100 μg/ml
same,dose dependence of inhibition of ICAM-1 expression,"[4]; dose response, FIG. 6",dose dependent
same,inhibition of ICAM-1 expression on endothelial cells,"[4]; recombinant TNF-α and IFN-γ stimulation, as early as 6 hours of treatment",inhibited the expression of ICAM-1 on endothelial cells
same,TNF mediated cytotoxity,"[5]; berberine 100 μg/ml, TNF 100 pg/ml alone showed 66% cytotoxity, 15 hrs incubation",27%
same,protection against TNF mediated killing,"[5]; different doses of berberine with TNF-α, 15 hrs",dose dependent inhibition of cytotoxic effect; also recorded: dose dependent protection
